Here are results for 19 molecules from BindingDB's records for patent US20250257059 (Nerio Therapeutics, 2025).

The target in the test is T1, Tyrosine-protein phosphatase non-receptor type 2 (Homo sapiens, UniProt P17706).
T1 sequence (P17706 whole entry): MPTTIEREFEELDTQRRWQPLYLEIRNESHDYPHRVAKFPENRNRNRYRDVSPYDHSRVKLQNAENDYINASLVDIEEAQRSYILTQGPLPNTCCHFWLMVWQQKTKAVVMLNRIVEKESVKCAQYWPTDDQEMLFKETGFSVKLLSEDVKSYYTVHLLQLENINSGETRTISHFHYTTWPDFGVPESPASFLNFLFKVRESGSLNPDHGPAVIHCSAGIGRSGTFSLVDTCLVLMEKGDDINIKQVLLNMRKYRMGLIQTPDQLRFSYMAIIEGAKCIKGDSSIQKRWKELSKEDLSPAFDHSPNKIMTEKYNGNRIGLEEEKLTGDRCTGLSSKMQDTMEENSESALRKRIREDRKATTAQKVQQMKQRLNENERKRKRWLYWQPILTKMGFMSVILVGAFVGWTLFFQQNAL
As to the kind of experiment: In vitro enzymatic assay. Here is the method:
PTPN2 was produced in E. coli as a GST-TEV fusion and the GST was removed by TEV digestion, followed by additional purification to yield full-length PTPN2 (SEQ ID 1). PTPN2 enzyme was diluted in assay buffer (50 mM HEPES pH7.5, 0.2 mM EDTA, 1 mM DTT, 0.02% Brij-35, 0.02% BSA) to a final concentration of 0.5 nM and added to black 384-well non-binding plates (Greiner, 781900). Compounds were subsequently added using a Tecan D300e dispenser. Following a 10 min incubation at room temperature, DiFMUP substrate (ThermoFisher, D22065) was added to a final concentration of 100 μM. Plates were transferred to a SpectraMax plate reader (Molecular Devices) and fluorescence intensity was measured (ex 358, em 455) after a 30 min incubation at room temperature. […] A four-parameter curve fit was used to determine IC50 values from % inhibition data.
For `O=C1CN(c2c(O)cc(CCN3CC(F)C3)cc2F)S(=O)(=O)N1` [US20250257059, Example 136], the IC50 is 3 nM.

For the molecule `O=C1CN(c2c(O)cc(CCN3CCOCC3)cc2F)S(=O)(=O)N1` [US20250257059, Example 89], the IC50 was found to be 7 nM.

The molecule `CC(C)(C)C1CCN(CCc2cc(O)c(N3CC(=O)NS3(=O)=O)c(F)c2)C1` (centres undefined) [US20250257059, Example 111] displayed an IC50 of 2 nM.

The molecule `O=C1CN(c2c(O)cc(CCN3CCCC(F)C3)cc2F)S(=O)(=O)N1` (centres undefined) [US20250257059, Example 97] showed an IC50 of 3 nM.

Molecule `O=C1CN(c2c(O)ccc(CC3CCCCN3CCC3CCCC3)c2F)S(=O)(=O)N1` (centres undefined) [US20250257059, Example 80] gave an IC50 of 5 nM.

The molecule `COC1CCN(CCc2cc(O)c(N3CC(=O)NS3(=O)=O)c(F)c2)CC1` [US20250257059, Example 104] had an IC50 of 3 nM.

`O=C1CN(c2c(O)cc(CCN3CC[C@@H](C(F)(F)F)C3)cc2F)S(=O)(=O)N1` [US20250257059, Example 122]: it took 3 nM to reach half-maximal inhibition (IC50).

The molecule `CC1(C)CN(CCc2cc(O)c(N3CC(=O)NS3(=O)=O)c(F)c2)C1` [US20250257059, Example 127] yielded an IC50 of 2 nM.

The molecule `O=C1CN(c2c(O)cc(CCN3CC(C(F)(F)F)C3)cc2F)S(=O)(=O)N1` [US20250257059, Example 137] had an IC50 of 5 nM.

In turn, `O=C1CN(c2c(O)cc(CCN3Cc4ccccc4C3)cc2F)S(=O)(=O)N1` [US20250257059, Example 128] had a half-inhibitory concentration (IC50) of 2 nM.

`O=C1CN(c2c(O)cc(CCN3CCC4(CCOCC4)C3)cc2F)S(=O)(=O)N1` [US20250257059, Example 113] yielded an IC50 of 2 nM.

In turn, `COC[C@@H]1CCN(CCc2cc(O)c(N3CC(=O)NS3(=O)=O)c(F)c2)C1` [US20250257059, Example 117] returned an IC50 of 1 nM.

In turn, `CC(C)[C@@H]1CCN(CCc2cc(O)c(N3CC(=O)NS3(=O)=O)c(F)c2)C1` [US20250257059, Example 134] registered an IC50 of 1 nM.

For the molecule `CC(C)[C@H]1CCN(CCc2cc(O)c(N3CC(=O)NS3(=O)=O)c(F)c2)C1` [US20250257059, Example 135], the IC50 came to 2 nM.

`O=C1CN(c2c(O)cc(CCN3CCC4(CCCC4)C3)cc2F)S(=O)(=O)N1` [US20250257059, Example 112] displayed an IC50 of 2 nM.

On to `O=C1CN(c2c(O)cc(CC3CCCCNC3)cc2F)S(=O)(=O)N1` (centres undefined) [US20250257059, Example 55], for which half-maximal inhibition (IC50) required 16 nM.

For `O=C1CN(c2c(O)cc(CC3CCN(Cc4ccco4)C3)cc2F)S(=O)(=O)N1` (centres undefined) [US20250257059, Example 7], half-maximal inhibition (IC50) required 7 nM.

The molecule `CC1CN(CCc2cc(O)c(N3CC(=O)NS3(=O)=O)c(F)c2)C1` [US20250257059, Example 140] returned a half-inhibitory concentration (IC50) of 2 nM.

On to `CC(C)CCCN1CCCCC1Cc1ccc(O)c(N2CC(=O)NS2(=O)=O)c1F` (centres undefined) [US20250257059, Example 79], for which the IC50 came to 7 nM.
